Like-named read-outs stand apart in the source and are kept apart here.
Tests used:
[1] = intramuscular injections; wide range of doses; squirrel monkeys; cited from earlier work
[2] = target: T1, Human recombinant M2 clone (Homo sapiens, UniProt P08172); assay: Muscarinic--M2 Clone Binding Assay
T1 construct: expressed in transfected cells
T1 sequence (P08172 1-466): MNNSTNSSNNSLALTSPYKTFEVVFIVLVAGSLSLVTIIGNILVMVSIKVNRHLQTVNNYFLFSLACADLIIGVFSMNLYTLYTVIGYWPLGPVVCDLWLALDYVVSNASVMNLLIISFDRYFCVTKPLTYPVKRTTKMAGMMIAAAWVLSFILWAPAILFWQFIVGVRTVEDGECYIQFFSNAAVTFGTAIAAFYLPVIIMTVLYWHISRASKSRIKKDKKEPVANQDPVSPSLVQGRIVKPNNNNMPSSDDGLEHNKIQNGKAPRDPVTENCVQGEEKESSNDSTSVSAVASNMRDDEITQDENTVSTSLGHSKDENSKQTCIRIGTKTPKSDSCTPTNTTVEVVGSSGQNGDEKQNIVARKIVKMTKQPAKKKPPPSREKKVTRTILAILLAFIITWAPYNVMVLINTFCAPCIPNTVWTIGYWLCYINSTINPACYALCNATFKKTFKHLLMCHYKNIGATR

nicotinic binding site = target: T2, nicotinic binding site (Rattus norvegicus, UniProt P09483+P12390); assay: biochemical; settings: Rat cortical membranes, [3H]N-methylcarbamylcholine iodide 2.5 nM, read-out: Receptor Binding Activity Percent Inhibition Average (N = 2)
T2 construct: Rat cortical membranes; from tissue; host or cells: rat cortical membranes

[3] = test system: Glutamic Acid Decarboxylase (GAD); assay: Glutamic Acid Decarboxylase (GAD) Enzyme Assay; assay type: biochemical; settings: 10^-8 M; Rat corpus striatal membranes; [14C]L-Glutamic acid
Experimental: Radioimmunoassay studies were conducted with rat corpus striatal membranes using the following method.
Glutamic Acid Decarboxylase (GAD) Enzyme Assay
Rat corpus striatal membranes
Substrate: [^14 C]L-Glutamic acid (30-80 Ci/mmol)
Reactions are incubated in phosphate/mercapoethanol buffer
6.9) for 30 minutes at 37° C. The reaction is
stopped by the addition
of trichloroacetic acid and placement on ice. Radioactive
trapped in phenylethylamine/methanol and quantitated using
scintillation […] in order to ascertain any
of test compounds with the glutamic acid decarboxylase

[4] = Half-life, bioavailability and blood levels in humans; design: species or system human; settings: in vivo
[5] = cited from earlier work
GABA uptake site = target: T3, GABA uptake site (Rattus norvegicus, UniProt P23978); assay: biochemical; settings: Rat cortical membranes, [3H]GABA 3.6 nM, read-out: Receptor Binding Activity Percent Inhibition Average (N = 2)
T3 construct: Rat cortical membranes; from tissue; host or cells: rat cortical membranes

Serotonin (5HT1A) = target: T4, Serotonin (5HT1A) (Bos taurus, UniProt F6Q2H9); assay: Serotonin (5HT1A) Binding Assay; design: species or system Bovine; settings: Bovine hippocampal membranes, [3H]-8-OH-DPAT 1.0 nM, read-out: Receptor Binding Activity Percent Inhibition Average (N = 2)
T4 construct: Bovine hippocampal membranes; from tissue; host or cells: bovine hippocampal membranes
T4 sequence (F6Q2H9 1-422): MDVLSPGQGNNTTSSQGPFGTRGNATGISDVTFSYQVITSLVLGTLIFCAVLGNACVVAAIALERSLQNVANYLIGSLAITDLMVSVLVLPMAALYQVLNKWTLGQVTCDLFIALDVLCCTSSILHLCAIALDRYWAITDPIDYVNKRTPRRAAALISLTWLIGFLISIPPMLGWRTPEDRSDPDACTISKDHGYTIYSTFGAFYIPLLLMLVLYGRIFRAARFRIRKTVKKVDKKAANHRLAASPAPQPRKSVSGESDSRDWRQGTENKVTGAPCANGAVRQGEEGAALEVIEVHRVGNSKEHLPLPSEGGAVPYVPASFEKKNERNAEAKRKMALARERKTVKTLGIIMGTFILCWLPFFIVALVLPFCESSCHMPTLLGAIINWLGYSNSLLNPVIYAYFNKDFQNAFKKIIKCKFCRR

Histamine (H2) = target: T5, Histamine (H2) (Cavia porcellus, UniProt P47747); assay: Histamine (H2) Binding Assay; design: species or system Guinea pig; settings: Guinea pig striatal membranes, [3H]Tiotidine 4.0 nM, read-out: Receptor Binding Activity Percent Inhibition Average (N = 2)
T5 construct: Guinea pig striatal membranes; from tissue; host or cells: guinea pig striatal membranes

dopamine uptake site = target: T6, dopamine uptake site (Cavia porcellus, UniProt H0WCX4); assay: Dopamine Reuptake Binding Assay; settings: Guinea pig striatal membranes, [3H]WIN,35,428 1.0 nM
T6 construct: Guinea pig striatal membranes; from tissue; host or cells: guinea pig striatal membranes

Opiate (Delta) = target: T7, Opiate (Delta) (Rattus norvegicus, UniProt P33533); assay: Opiate (Delta) Binding Assay; settings: read-out: Receptor Binding Activity Percent Inhibition Average (N = 2)
T7 construct: Rat forebrain membranes; from tissue; host or cells: rat forebrain membranes

[6] = intravenous; cats; cited from earlier work
[7] = target: T8, Benzodiazepine (Peripheral) (Rattus norvegicus, UniProt P16257); assay: Benzodiazepine (Peripheral) Binding Assay; settings: read-out: Receptor Binding Activity Percent Inhibition Average (N = 2)
T8 construct: Rat kidney membranes; from tissue; host or cells: rat kidney membranes

[8] = target: Glycine (Strychnine Insensitive) (Rattus norvegicus, UniProt P35439); assay: biochemical; assay type: binding; settings: read-out: Receptor Binding Activity Percent Inhibition Average (N = 2)
Histamine (H3) = target: T9, Histamine (H3) (Rattus norvegicus, UniProt Q9QYN8); assay: Histamine (H3) Binding Assay; settings: Rat forebrain membranes, [3H]N^a-methylhistamine 0.2 nM, read-out: Receptor Binding Activity Percent Inhibition Average (N = 2)
T9 construct: Rat forebrain membranes; from tissue; host or cells: rat forebrain membranes

Serotonin (5HT1) = Serotonin (5HT1) Binding Assay; settings: Rat cortical membranes, [3H]Hydroxytryptamine binoxalate 3.0 nM
[9] = read-out: Receptor Binding Activity Percent Inhibition Average (N = 2)

T2 sequence (P09483 31-630): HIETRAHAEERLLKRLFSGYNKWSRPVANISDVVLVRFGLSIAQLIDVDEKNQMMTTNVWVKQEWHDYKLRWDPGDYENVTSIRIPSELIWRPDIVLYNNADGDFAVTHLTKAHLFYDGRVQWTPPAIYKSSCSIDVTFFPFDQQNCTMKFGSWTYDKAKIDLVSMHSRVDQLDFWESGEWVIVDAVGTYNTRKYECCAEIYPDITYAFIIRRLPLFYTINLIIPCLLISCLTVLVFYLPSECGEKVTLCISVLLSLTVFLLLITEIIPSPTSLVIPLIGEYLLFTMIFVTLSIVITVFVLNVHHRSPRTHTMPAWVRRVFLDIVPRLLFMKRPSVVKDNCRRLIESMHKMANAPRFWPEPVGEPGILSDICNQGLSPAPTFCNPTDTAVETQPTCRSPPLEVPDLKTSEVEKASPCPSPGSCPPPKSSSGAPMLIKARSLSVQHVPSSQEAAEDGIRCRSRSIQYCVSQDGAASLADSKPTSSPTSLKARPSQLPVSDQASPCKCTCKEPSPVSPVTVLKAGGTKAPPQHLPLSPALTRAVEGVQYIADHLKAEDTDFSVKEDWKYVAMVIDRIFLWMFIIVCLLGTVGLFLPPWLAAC
T2 sequence (P12390 25-500): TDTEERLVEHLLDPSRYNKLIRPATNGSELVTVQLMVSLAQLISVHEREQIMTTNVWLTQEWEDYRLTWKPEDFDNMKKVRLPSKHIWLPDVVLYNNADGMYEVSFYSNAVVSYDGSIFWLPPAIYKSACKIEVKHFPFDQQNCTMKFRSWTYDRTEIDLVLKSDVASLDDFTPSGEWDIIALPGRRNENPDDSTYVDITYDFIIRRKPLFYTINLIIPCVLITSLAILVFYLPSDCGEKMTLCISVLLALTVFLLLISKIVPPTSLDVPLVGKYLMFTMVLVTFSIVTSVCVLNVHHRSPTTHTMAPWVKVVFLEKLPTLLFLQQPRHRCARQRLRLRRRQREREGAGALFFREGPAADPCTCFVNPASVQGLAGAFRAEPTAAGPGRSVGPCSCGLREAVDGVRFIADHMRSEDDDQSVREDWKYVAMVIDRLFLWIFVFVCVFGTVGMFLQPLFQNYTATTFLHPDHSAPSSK
T5 sequence (P47747 whole entry): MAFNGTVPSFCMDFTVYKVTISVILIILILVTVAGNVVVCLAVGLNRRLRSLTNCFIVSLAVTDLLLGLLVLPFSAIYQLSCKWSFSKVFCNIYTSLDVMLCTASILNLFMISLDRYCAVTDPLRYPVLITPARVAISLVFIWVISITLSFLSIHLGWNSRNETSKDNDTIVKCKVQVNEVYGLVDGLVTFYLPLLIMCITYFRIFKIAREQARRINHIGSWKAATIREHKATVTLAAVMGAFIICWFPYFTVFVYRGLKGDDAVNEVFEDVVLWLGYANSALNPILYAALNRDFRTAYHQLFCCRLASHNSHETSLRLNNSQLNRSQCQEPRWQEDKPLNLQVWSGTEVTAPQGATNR
T8 sequence (P16257 whole entry): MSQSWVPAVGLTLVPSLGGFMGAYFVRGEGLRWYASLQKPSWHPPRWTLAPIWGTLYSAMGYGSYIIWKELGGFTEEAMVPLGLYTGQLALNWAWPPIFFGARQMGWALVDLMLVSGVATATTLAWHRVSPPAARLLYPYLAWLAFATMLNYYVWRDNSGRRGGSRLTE
T9 sequence (Q9QYN8 whole entry): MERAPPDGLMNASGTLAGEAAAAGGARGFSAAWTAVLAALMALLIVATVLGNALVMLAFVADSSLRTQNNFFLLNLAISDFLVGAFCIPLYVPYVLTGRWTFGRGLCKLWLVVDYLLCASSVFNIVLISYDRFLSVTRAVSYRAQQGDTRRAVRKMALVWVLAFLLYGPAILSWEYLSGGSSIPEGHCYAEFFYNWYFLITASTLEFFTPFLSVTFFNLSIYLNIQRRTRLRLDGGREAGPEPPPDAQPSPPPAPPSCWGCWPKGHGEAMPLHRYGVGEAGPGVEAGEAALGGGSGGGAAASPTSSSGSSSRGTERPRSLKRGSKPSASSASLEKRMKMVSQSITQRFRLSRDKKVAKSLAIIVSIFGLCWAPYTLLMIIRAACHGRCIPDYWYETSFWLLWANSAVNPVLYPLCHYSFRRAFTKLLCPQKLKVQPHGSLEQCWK
T7 sequence (P33533 whole entry): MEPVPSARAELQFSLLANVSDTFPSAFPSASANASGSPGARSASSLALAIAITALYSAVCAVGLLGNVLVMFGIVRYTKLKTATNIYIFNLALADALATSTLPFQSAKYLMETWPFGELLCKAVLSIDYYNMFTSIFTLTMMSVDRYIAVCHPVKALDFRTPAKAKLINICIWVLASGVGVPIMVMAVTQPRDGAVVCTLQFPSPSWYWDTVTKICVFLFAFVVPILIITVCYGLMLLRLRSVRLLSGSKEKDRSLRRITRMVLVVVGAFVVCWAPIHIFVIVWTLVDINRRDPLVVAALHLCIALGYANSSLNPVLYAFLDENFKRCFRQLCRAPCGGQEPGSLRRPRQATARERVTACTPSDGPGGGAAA
T6 sequence (H0WCX4 1-619): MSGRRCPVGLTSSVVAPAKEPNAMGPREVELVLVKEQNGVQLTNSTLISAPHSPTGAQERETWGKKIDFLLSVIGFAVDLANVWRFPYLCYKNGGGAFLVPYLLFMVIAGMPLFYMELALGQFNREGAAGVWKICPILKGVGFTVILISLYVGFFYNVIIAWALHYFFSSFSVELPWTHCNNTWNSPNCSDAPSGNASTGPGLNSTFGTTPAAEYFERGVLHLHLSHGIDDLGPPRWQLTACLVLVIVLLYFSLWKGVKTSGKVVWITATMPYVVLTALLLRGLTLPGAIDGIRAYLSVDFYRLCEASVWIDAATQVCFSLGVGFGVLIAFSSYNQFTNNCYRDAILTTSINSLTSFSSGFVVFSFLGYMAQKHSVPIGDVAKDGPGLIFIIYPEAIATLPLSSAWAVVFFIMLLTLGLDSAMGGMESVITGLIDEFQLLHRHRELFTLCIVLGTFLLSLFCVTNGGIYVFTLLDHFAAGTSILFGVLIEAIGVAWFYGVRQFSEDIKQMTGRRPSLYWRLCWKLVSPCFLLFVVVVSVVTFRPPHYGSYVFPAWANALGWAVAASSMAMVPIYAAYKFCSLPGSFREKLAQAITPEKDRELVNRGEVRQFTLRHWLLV

CN1C(=O)CCC1c1cccnc1 (single isomer, unassigned) [Cotinine, 1-methyl-5-(3-pyridinyl)-2-pyrrolidionone]
rates of responding on fixed interval schedules of reinforcement [1]: increased rates of responding
effectiveness in binding relative to an equal concentration of nicotine, binding expressed as percent inhibition ([2]; muscarinic-2 receptor, human tissue): about five
inhibition at 1 µM [2, 9]: 22.3%
inhibition at 100 µM [2, 9]: 21.6%
inhibition at 100 µM (nicotinic binding site; 10^-4 M): 12%
inhibition at 1 µM (nicotinic binding site; 10^-6 M): 78.5%
Percent Inhibition [3]: 38%
duration of effectiveness relative to nicotine, due to greater half-life [4]: about eight
terminal elimination half-life ([5]; human, in vivo): about 16 hours
half-life ([5]; in the human, in vivo): 16 to 17 h
oral bioavailability ([5]; in vivo, po): complete
terminal elimination half-life ([5]; in vivo): sixteen
blood concentration in smokers ([5]; nicotine: one-pack-a-day smoker, cotinine: one-half-pack-a-day smoker): about 300 ng/ml
concentration ([5]; read-out: blood concentration in smokers, nicotine: one-pack-a-day smoker, cotinine: one-half-pack-a-day smoker): ~2000 nM
inhibition at 100 µM (GABA uptake site; 10^-4 M): 7.4%
inhibition at 1 µM (GABA uptake site; 10^-6 M): 13.9%
inhibition at 100 µM (Serotonin (5HT1A); 10^-4 M): 1.4%
inhibition at 1 µM (Serotonin (5HT1A); 10^-6 M): 1.1%
inhibition at 100 µM (Histamine (H2); 10^-4 M): -1.4%
inhibition at 1 µM (Histamine (H2); 10^-6 M): 9.2%
Receptor Binding Activity Percent Inhibition Average (N = 2) (dopamine uptake site; 10^-4 M): 7.5%
Receptor Binding Activity Percent Inhibition Average (N = 2) (dopamine uptake site; 10^-6 M): 14.2%
inhibition at 1 µM (Opiate (Delta)): 8.3%
inhibition at 100 µM (Opiate (Delta)): 10%
EEG activity and behavioral arousal [6]: increases only slightly
blood pressure [6]: only a slight decrease
inhibition at 1 µM [7]: 8.5%
inhibition at 100 µM [7]: 1.4%
inhibition at 1 µM [8]: 10.9%
inhibition at 100 µM [8]: -0.6%
inhibition at 100 µM (Histamine (H3); 10^-4 M): 15.7%
inhibition at 1 µM (Histamine (H3); 10^-6 M): 11.9%
Receptor Binding Activity Percent Inhibition Average (N = 2) (Serotonin (5HT1); 10^-4 M): -0.8%
Receptor Binding Activity Percent Inhibition Average (N = 2) (Serotonin (5HT1); 10^-6 M): 10.9%

Reference: patent US5889029A, “Use of cotinine in treating psychiatric disorders” (priority 1997, dated 1999)
